Reference: PubChem BioAssay AID2060501 (Molecular Pharmacology Branch, DTP, NCI, 2025)

Test system: 282377-053-R-J1-PDC complex spheroids, viability
Assay: Anticancer human tumor 282377-053-R-J1-PDC patient-derived colon adenocarcinoma cell line growth inhibition [GQUAD]
Settings: for IC50: curve of first compound; for viability, T/C: stronger effect = lower value; active = viability on the fitted dose curve at most 10% of control; inactive = the rest
Outline: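 Viability of tumor cells grown as complex spheroids with endothelial and stromal cells, exposed to drug combinations. Top concentration at or near clinical Cmax (else 10 microM), diluted in half-log increments.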

[1] = second compound 0.0316 µM, first compound 0.0316 µM
[2] = second compound 0.0316 µM, first compound 0.1 µM
[3] = second compound 0.0316 µM, first compound 0.316 µM
[4] = second compound 0.0316 µM, first compound 1 µM
[5] = second compound 0.0316 µM, first compound 3.16 µM
[6] = second compound 0.0316 µM, first compound 10 µM
[7] = second compound 0.1 µM, first compound 0.0316 µM
[8] = second compound 0.1 µM, first compound 0.1 µM
[9] = second compound 0.1 µM, first compound 0.316 µM
[10] = second compound 0.1 µM, first compound 1 µM
[11] = second compound 0.1 µM, first compound 3.16 µM
[12] = second compound 0.1 µM, first compound 10 µM
[13] = second compound 0.316 µM, first compound 0.0316 µM
[14] = second compound 0.316 µM, first compound 0.1 µM
[15] = second compound 0.316 µM, first compound 0.316 µM
[16] = second compound 0.316 µM, first compound 1 µM
[17] = second compound 0.316 µM, first compound 3.16 µM
[18] = second compound 0.316 µM, first compound 10 µM
[19] = second compound 1 µM, first compound 0.0316 µM
[20] = second compound 1 µM, first compound 0.1 µM
[21] = second compound 1 µM, first compound 0.316 µM
[22] = second compound 1 µM, first compound 1 µM
[23] = second compound 1 µM, first compound 3.16 µM
[24] = second compound 1 µM, first compound 10 µM
[25] = second compound 3.16 µM, first compound 0.0316 µM
[26] = second compound 3.16 µM, first compound 0.1 µM
[27] = second compound 3.16 µM, first compound 0.316 µM
[28] = second compound 3.16 µM, first compound 1 µM
[29] = second compound 3.16 µM, first compound 3.16 µM
[30] = second compound 3.16 µM, first compound 10 µM
[31] = second compound 10 µM, first compound 0.0316 µM
[32] = second compound 10 µM, first compound 0.1 µM
[33] = second compound 10 µM, first compound 0.316 µM
[34] = second compound 10 µM, first compound 1 µM
[35] = second compound 10 µM, first compound 3.16 µM
[36] = second compound 10 µM, first compound 10 µM
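Also: spheroids exposed to compounds for 7 days before readout.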
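For viability, T/C in this document: percent of vehicle DMSO control viability with 100% = untreated-like growth.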

C=CCn1c(=O)c2cnc(Nc3ccc(N4CCN(C)CC4)cc3)nc2n1-c1cccc(C(C)(C)O)n1 + Cc1cnc(CNC(=O)c2c(=O)c3ccc(N4CCCN(C)CC4)nc3n3c2sc2ccccc23)cn1
< 0.0316 µM: IC50 (second compound 10 µM)
active: viability, T/C [35] 1.31% | viability, T/C [36] 0.34%
1.59 µM: IC50 (second compound 0.0316 µM)
1.47 µM: IC50 (second compound 0.1 µM)
0.295 µM: IC50 (second compound 3.16 µM)
0.731 µM: IC50 (second compound 0.316 µM)
0.651 µM: IC50 (second compound 1 µM)
inactive: viability, T/C [1] 109% | viability, T/C [2] 102% | viability, T/C [3] 107% | viability, T/C [4] 67.7% | viability, T/C [5] 24.1% | viability, T/C [6] 15.1% | viability, T/C [7] 115% | viability, T/C [8] 115% | viability, T/C [9] 99.6% | viability, T/C [10] 62.8% | viability, T/C [11] 24.6% | viability, T/C [12] 11.7% | viability, T/C [13] 102% | viability, T/C [14] 97.8% | viability, T/C [15] 73.4% | viability, T/C [16] 40.4% | viability, T/C [17] 22.3% | viability, T/C [18] 12.5% | viability, T/C [19] 75.5% | viability, T/C [20] 75.8% | viability, T/C [21] 65.1% | viability, T/C [22] 40.2% | viability, T/C [23] 22.6% | viability, T/C [24] 13.6% | viability, T/C [25] 55.7% | viability, T/C [26] 60.1% | viability, T/C [27] 45.4% | viability, T/C [28] 42% | viability, T/C [29] 26.2% | viability, T/C [30] 12.1% | viability, T/C [31] 44.4% | viability, T/C [32] 48.5% | viability, T/C [33] 43.1% | viability, T/C [34] 36.6%

COc1cccc2c1C(=O)c1c(O)c3c(c(O)c1C2=O)CC(O)(C(=O)CO)CC3OC1CC(N)C(O)C(C)O1 (stereo not drawn) + CN(C)c1ccc(Nc2c3ccc(NC(=O)CCN4CCCC4)cc3nc3cc(NC(=O)CCN4CCCC4)ccc23)cc1
active: viability, T/C [6] 1.26% | viability, T/C [12] 1.8% | viability, T/C [18] 2.16% | viability, T/C [24] 1.89% | viability, T/C [30] 2.76% | viability, T/C [36] 4.44%
2.58 µM: IC50 (second compound 10 µM)
1.53 µM: IC50 (second compound 0.0316 µM)
2.26 µM: IC50 (second compound 1 µM)
inactive: viability, T/C [1] 114% | viability, T/C [2] 99% | viability, T/C [3] 92.8% | viability, T/C [4] 62.6% | viability, T/C [5] 27.7% | viability, T/C [7] 104% | viability, T/C [8] 96.2% | viability, T/C [9] 109% | viability, T/C [10] 71.6% | viability, T/C [11] 31.1% | viability, T/C [13] 89.4% | viability, T/C [14] 110% | viability, T/C [15] 98.6% | viability, T/C [16] 73.7% | viability, T/C [17] 32.4% | viability, T/C [19] 85% | viability, T/C [20] 94.2% | viability, T/C [21] 106% | viability, T/C [22] 73.8% | viability, T/C [23] 39.5% | viability, T/C [25] 97.8% | viability, T/C [26] 88.1% | viability, T/C [27] 96.5% | viability, T/C [28] 74.2% | viability, T/C [29] 35.2% | viability, T/C [31] 97% | viability, T/C [32] 100% | viability, T/C [33] 105% | viability, T/C [34] 83.6% | viability, T/C [35] 42.9%
1.95 µM: IC50 (second compound 0.316 µM)
1.89 µM: IC50 (second compound 0.1 µM)
2.06 µM: IC50 (second compound 3.16 µM)

O=C(c1cc(Cc2n[nH]c(=O)c3ccccc23)ccc1F)N1CCN(C(=O)C2CC2)CC1 + Cc1cnc(CNC(=O)c2c(=O)c3ccc(N4CCCN(C)CC4)nc3n3c2sc2ccccc23)cn1
inactive: viability, T/C [1] 103% | viability, T/C [2] 100% | viability, T/C [3] 140% | viability, T/C [4] 92.9% | viability, T/C [5] 90.6% | viability, T/C [6] 89.2% | viability, T/C [7] 106% | viability, T/C [8] 121% | viability, T/C [9] 93% | viability, T/C [10] 84.9% | viability, T/C [11] 110% | viability, T/C [12] 92.3% | viability, T/C [13] 84.2% | viability, T/C [14] 91.9% | viability, T/C [15] 74.6% | viability, T/C [16] 89.8% | viability, T/C [17] 95.6% | viability, T/C [18] 73.3% | viability, T/C [19] 61.2% | viability, T/C [20] 55.8% | viability, T/C [21] 54.7% | viability, T/C [22] 61% | viability, T/C [23] 60.8% | viability, T/C [24] 54% | viability, T/C [25] 60.8% | viability, T/C [26] 51.1% | viability, T/C [27] 59.2% | viability, T/C [28] 52.3% | viability, T/C [29] 46.2% | viability, T/C [30] 48.6% | viability, T/C [31] 52.9% | viability, T/C [32] 47.4% | viability, T/C [33] 47.7% | viability, T/C [34] 48.9% | viability, T/C [35] 40.1% | viability, T/C [36] 46.6%
2.43 µM: IC50 (second compound 3.16 µM)
0.0701 µM: IC50 (second compound 10 µM)
> 10 µM: IC50 (second compound 0.0316 µM) | IC50 (second compound 0.1 µM) | IC50 (second compound 0.316 µM) | IC50 (second compound 1 µM)

CC(=O)O[C@H]1C(=O)[C@@]2(C)[C@H]([C@H](OC(=O)c3ccccc3)[C@]3(O)C[C@H](OC(=O)[C@H](O)[C@@H](NC(=O)c4ccccc4)c4ccccc4)C(C)=C1C3(C)C)[C@]1(OC(C)=O)CO[C@@H]1C[C@@H]2O + Cc1[nH]c2ccc(F)cc2c1-c1nc2c3cccnc3c3ncccc3c2[nH]1
0.424 µM: IC50 (second compound 3.16 µM)
0.519 µM: IC50 (second compound 0.0316 µM) | IC50 (second compound 0.316 µM)
0.584 µM: IC50 (second compound 0.1 µM)
inactive: viability, T/C [1] 115% | viability, T/C [2] 112% | viability, T/C [3] 84.6% | viability, T/C [7] 108% | viability, T/C [8] 107% | viability, T/C [9] 106% | viability, T/C [13] 107% | viability, T/C [14] 111% | viability, T/C [15] 79.5% | viability, T/C [16] 10.8% | viability, T/C [19] 116% | viability, T/C [20] 90.3% | viability, T/C [21] 110% | viability, T/C [25] 92.8% | viability, T/C [26] 109% | viability, T/C [27] 66% | viability, T/C [31] 36.7% | viability, T/C [32] 43.9% | viability, T/C [33] 59.1% | viability, T/C [34] 10.1%
0.617 µM: IC50 (second compound 1 µM)
< 0.0316 µM: IC50 (second compound 10 µM)
active: viability, T/C [4] 4.01% | viability, T/C [5] 0.1% | viability, T/C [6] 0.12% | viability, T/C [10] 3.64% | viability, T/C [11] 0.06% | viability, T/C [12] 0.09% | viability, T/C [17] 0.05% | viability, T/C [18] 0.21% | viability, T/C [22] 9.92% | viability, T/C [23] 0.04% | viability, T/C [24] 0.07% | viability, T/C [28] 4.89% | viability, T/C [29] 0.11% | viability, T/C [30] 0.1% | viability, T/C [35] 0.17% | viability, T/C [36] 0.46%
